Test results published in US5698538A, “Boronic acid and ester inhibitors of thrombin” (The DuPont Merck Pharmaceutical Company, priority 1996, dated 1997).
Counter-ions that a name gives are not always drawn. Like-named read-outs stand apart in the source and are kept apart here.

What was measured:
Assay type in all cases: biochemical
human thrombin = target: T1, human thrombin (Homo sapiens, UniProt P00734); experiment: Inhibition of human thrombin (chromogenic substrate S2238), inhibitory constant Ki; conditions: 0.2-0.5 nM human thrombin, S2238, pH 7.5, 30 minutes; read-out: Ki values for inhibition of Serine Proteases: Thrombin
T1 construct: purchased Enzyme Research Laboratories, South Bend, Ind
Protocol: (§1) The effectiveness of compounds of the present invention as inhibitors of blood coagulation proteases was determined using purified human proteases and synthetic substrates following procedures similar to those described in Kettner et al. (1990).
(§2) For these assays, the rate of enzymatic (thrombin, Factor Xa, and Factor VIIa) hydrolysis of chromogenic substrates (S2238 (H-D-Phe-Pip-Arg-pNA), S2222, and S2288, respectively; Kabi Pharmacia, Franklin, Ohio.) was measured both in the absence and presence of compounds of the present invention. […] A decrease in the rate of absorbance change at 405 nm in the presence of inhibitor is indicative of enzyme inhibition. The results of this assay are expressed as inhibitory constant, Ki.
(§3) Thrombin and Xa determinations were made in 0.10M sodium phosphate buffer, pH 7.5, containing 0.20M NaCl, and 0.5% PEG 8000. VIIa determinations were made in 0.05M tris buffer, pH 7.6, containing 0.10M NaCl, 4 mM CaCl2, and 0.1% bovine serum albumin. The Michaelis constant, Km, for substrate hydrolysis was determined at 5° C. using the method of Lineweaver and Burk.
(§4) Values of Ki were determined by allowing 0.2-0.5 nM human thrombin or human factor Xa (Enzyme Research Laboratories, South Bend, Ind.), or 50 nM human factor VIIa (BiosPacific, Emeryville, Calif.) react with the substrate (0.20 mM-1 mM) in the presence of inhibitor. Reactions were allowed to go for 30 minutes and the velocities (rate of absorbance change vs time) were measured in the time frame of 25-30 minutes. The following relationship was used to calculate Ki values. [formula] where: vo is the velocity of the control in the absence of inhibitor;
(§5) vs is the velocity in the presence of inhibitor;
(§6) I is the concentration of inhibitor;
(§7) Ki is the dissociation constant of the enzyme: inhibitor complex;
(§8) S is the concentration of substrate;
(§9) Km is the Michaelis constant.

human factor VIIa = target: T2, human factor VIIa (Homo sapiens, UniProt P08709); experiment: Inhibition of human factor VIIa (chromogenic substrate S2288), inhibitory constant Ki
T2 construct: Factor VIIa in the extrinsic pathway; purchased BiosPacific, Emeryville, Calif
T2 sequence (P08709 213-466 limits assumed): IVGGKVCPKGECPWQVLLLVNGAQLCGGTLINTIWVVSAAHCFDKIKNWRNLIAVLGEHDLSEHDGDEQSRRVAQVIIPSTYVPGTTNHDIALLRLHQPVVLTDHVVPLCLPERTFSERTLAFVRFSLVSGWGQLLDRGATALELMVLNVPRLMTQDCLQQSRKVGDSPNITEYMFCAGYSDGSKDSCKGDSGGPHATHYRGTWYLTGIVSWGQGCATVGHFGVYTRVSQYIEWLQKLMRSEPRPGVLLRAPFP
T2 sequence (P08709 61-212 partner limits assumed): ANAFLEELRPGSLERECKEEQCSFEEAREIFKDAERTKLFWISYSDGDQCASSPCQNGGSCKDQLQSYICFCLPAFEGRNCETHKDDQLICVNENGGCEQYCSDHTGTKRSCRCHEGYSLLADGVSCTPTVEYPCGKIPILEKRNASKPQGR
Protocol: as §1, §2, §3, §4, §5, §6, §7, §8, §9

human factor Xa = target: T3, human factor Xa (Homo sapiens, UniProt P00742); experiment: Inhibition of human factor Xa (chromogenic substrate S2222), inhibitory constant Ki; conditions: S2222, pH 7.5, 30 minutes, read-out: Ki values for inhibition of Serine Proteases: Factor Xa
T3 construct: purchased Enzyme Research Laboratories, South Bend, Ind
Protocol: as §1, §2, §3, §4, §5, §6, §7, §8, §9

[1] = 50 nM human factor VIIa, S2288, pH 7.6, 4 mM CaCl2, 30 minutes, read-out: Ki values for inhibition of Serine Proteases: Factor VIIa

T3 sequence (P00742 235-488 limits assumed): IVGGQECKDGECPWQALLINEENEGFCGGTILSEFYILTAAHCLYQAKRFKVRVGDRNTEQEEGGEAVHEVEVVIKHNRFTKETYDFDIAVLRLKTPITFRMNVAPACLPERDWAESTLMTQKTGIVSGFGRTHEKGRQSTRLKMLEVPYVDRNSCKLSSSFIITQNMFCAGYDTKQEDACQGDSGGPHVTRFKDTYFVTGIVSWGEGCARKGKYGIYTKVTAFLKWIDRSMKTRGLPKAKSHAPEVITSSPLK
T3 sequence (P00742 41-179 partner limits assumed): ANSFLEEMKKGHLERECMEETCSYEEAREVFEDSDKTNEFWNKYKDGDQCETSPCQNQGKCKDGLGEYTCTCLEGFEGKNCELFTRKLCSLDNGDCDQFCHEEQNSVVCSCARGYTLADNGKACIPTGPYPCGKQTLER

| Compound | Ki (human thrombin) | Ki (human factor VIIa; [1]) | Ki (human factor Xa) | Ki (human factor VIIa) |
| --- | --- | --- | --- | --- |
| CCCc1nc(Cc2ccccc2)nn1CC(=O)N[C@@H](CCCCN)B1OC2CC3CC(C3(C)C)C2(C)O1 (single isomer, unassigned) [Example 2414] | < 500 nM | 500 to 50000 nM | 500 to 50000 nM |  |
| CC1(C)[C@@H]2C[C@H]3OB([C@H](CCCNC(=N)N)NC(=O)c4ccc(-c5ccccc5)cc4[N+](=O)[O-])O[C@@]3(C)[C@H]1C2 [Example 203] | < 500 nM | < 500 nM | < 500 nM |  |
| CC(C)(C)OC(=O)Nc1cc(-c2ccccc2)ccc1C(=O)N[C@@H](CCCNC(=N)N)B1O[C@@H]2C[C@@H]3C[C@@H](C3(C)C)[C@]2(C)O1 [Example 303] | < 500 nM | 500 to 50000 nM | 500 to 50000 nM |  |
| COC(=O)Cc1nc(Cc2ccccc2)nn1CC(=O)N[C@@H](CCCCN)B1OC2CC3CC(C3(C)C)C2(C)O1 (stereo partly drawn) [Example 2443] | < 500 nM | 500 to 50000 nM | 500 to 50000 nM |  |
| COCCC[C@H](NC(=O)c1ccc(-c2ccccc2S(N)(=O)=O)cc1C)B1O[C@@H]2C[C@@H]3C[C@@H](C3(C)C)[C@]2(C)O1 [Example 305] | < 50000 nM | 500 to 50000 nM | 500 to 50000 nM |  |
| CC1(C)[C@@H]2C[C@H]3OB([C@H](CCCNC(=N)N)NC(=O)c4ccc(-c5ccccc5)c([N+](=O)[O-])c4)O[C@@]3(C)[C@H]1C2 [Example 298] | < 500 nM | < 500 nM | < 500 nM |  |
| CC1(C)C2CC3OB([C@H](CCCNC(=N)N)NC(=O)Cn4nc(Cc5ccccc5)nc4-c4cccc([N+](=O)[O-])c4)OC3(C)C1C2 (single isomer, unassigned) [Example 2491] | < 500 nM | 500 to 50000 nM | < 500 nM |  |
| NCCCC[C@H](NC(=O)Cn1nc(Cc2ccccc2)nc1-c1ccccc1)B(O)O [Example 2533] | < 500 nM | > 500000 nM | 500 to 50000 nM |  |
| CC1(C)C2CC3OB([C@H](CCCCN)NC(=O)Cn4nc(Cc5ccccc5)nc4CC#N)OC3(C)C1C2 (single isomer, unassigned) [Example 2422] | < 500 nM | 500 to 50000 nM | 500 to 50000 nM |  |
| CC1(C)C2CC3OB([C@H](CCCCN)NC(=O)Cn4nc(COCc5ccccc5)nc4CCc4ccccc4)OC3(C)C1C2 (single isomer, unassigned) [Example 2068] | < 50000 nM | 500 to 50000 nM | 500 to 50000 nM |  |
| CC1(C)[C@@H]2C[C@H]3OB([C@H](CCCNC(=N)N)NC(=O)c4ccc(-c5ccccc5)cc4F)O[C@@]3(C)[C@H]1C2 [Example 199] | < 500 nM | < 500 nM | < 500 nM |  |
| CC1(C)[C@@H]2C[C@H]3OB([C@H](CCCCN)NC(=O)Cn4nc(-c5cccc(N)c5)nc4Cc4ccccc4)O[C@@]3(C)[C@H]1C2 [Example 931] | < 500 nM |  | 500 to 50000 nM | 500 to 50000 nM |
| CC1(C)[C@@H]2C[C@H]3OB([C@H](CCCSC(=N)N)NC(=O)c4cccc(-c5ccccc5)c4)O[C@@]3(C)[C@H]1C2 [Example 35] | < 500 nM | 500 to 50000 nM | < 500 nM |  |
| COC(=O)NS(=O)(=O)c1ccccc1-c1ccc(C(=O)N[C@@H](CCCNC(=N)N)B2O[C@@H]3C[C@@H]4C[C@@H](C4(C)C)[C@]3(C)O2)c(C)c1 [Example 231] | < 500 nM | 500 to 50000 nM | < 500 nM |  |
| CC1(C)C2CC3OB([C@H](CCCCN)NC(=O)Cn4nc(Cc5ccccc5)nc4CC(=O)O)OC3(C)C1C2 (single isomer, unassigned) [Example 2430] | < 50000 nM | > 500000 nM | 500 to 50000 nM |  |
| CC1(C)[C@@H]2C[C@H]3OB([C@H](CCCCN)NC(=O)Cn4nc(CO)nc4Cc4ccccc4)O[C@@]3(C)[C@H]1C2 [Example 913] | < 500 nM | 500 to 50000 nM | > 500000 nM |  |

| Compound | Ki (human thrombin) | Ki (human factor VIIa; [1]) | Ki (human factor Xa) | Ki (human factor VIIa) |
| --- | --- | --- | --- | --- |
| CCCc1nc(Cc2ccccc2)n(CC(=O)N[C@@H](CCCCN)B2O[C@@H]3C[C@@H]4C[C@@H](C4(C)C)[C@]3(C)O2)n1 [Example 890] | < 500 nM | 500 to 50000 nM | 500 to 50000 nM |  |
| Cc1nc(Cc2ccccc2)nn1CC(=O)N[C@@H](CCCCN)B1OC2CC3CC(C3(C)C)C2(C)O1 (single isomer, unassigned) [Example 2412] | < 500 nM | 500 to 50000 nM | 500 to 50000 nM |  |
| CC1(C)C2CC3OB([C@H](CCCNC(=N)N)NC(=O)Cn4nc(Cc5ccccc5)nc4Cc4ccccc4)OC3(C)C1C2 (single isomer, unassigned) [Example 967] | < 500 nM | < 500 nM | 500 to 50000 nM |  |
| CC1(C)C2CC3OB([C@H](CCCCN)NC(=O)Cn4cnc(-c5ccccc5)n4)OC3(C)C1C2 (single isomer, unassigned) [Example 2073] | < 500 nM | 500 to 50000 nM | 500 to 50000 nM |  |
| CSCc1nc(Cc2ccccc2)nn1CC(=O)N[C@@H](CCCCN)B1OC2CC3CC(C3(C)C)C2(C)O1 (single isomer, unassigned) [Example 2416] | < 500 nM | 500 to 50000 nM | 500 to 50000 nM |  |
| Cc1cc(-c2cccc(NC(=O)OC(C)(C)C)c2)ccc1C(=O)N[C@@H](CCCNC(=N)N)B1O[C@@H]2C[C@@H]3C[C@@H](C3(C)C)[C@]2(C)O1 [Example 283] | < 500 nM | 500 to 50000 nM | < 500 nM |  |
| CC1(C)[C@@H]2C[C@H]3OB([C@H](CCCCN)NC(=O)Cn4nc(CC#N)nc4Cc4ccccc4)O[C@@]3(C)[C@H]1C2 [Example 898, R-N^1-(3-Cyanomethyl-5-phenylmethyl-1,2,4-triazol-1-yl)acetyl-borolysine, (+)-pinanediol ester, hydrochloride] | < 500 nM |  | 500 to 50000 nM | 500 to 50000 nM |
| CC1(C)C2CC3OB([C@H](CCCCN)NC(=O)Cn4nc(CCc5ccccc5)nc4CO)OC3(C)C1C2 (single isomer, unassigned) [Example 2780] | < 500 nM | < 500 nM | 500 to 50000 nM |  |
| CC1(C)C2CC3OB([C@H](CCCCN)NC(=O)Cn4nc(Cc5ccccc5)nc4COCc4ccccc4)OC3(C)C1C2 (single isomer, unassigned) [Example 2440] | < 500 nM | 500 to 50000 nM | 500 to 50000 nM |  |
| CC1(C)[C@@H]2C[C@H]3OB([C@H](CCCCN)NC(=O)c4cccc(-c5ccccc5)c4)O[C@@]3(C)[C@H]1C2 [Example 68] | < 50000 nM | < 500 nM | 500 to 50000 nM |  |
| Cc1nc(-c2ccccc2)ncc1C(=O)N[C@@H](CCCNC(=N)N)B1O[C@@H]2C[C@@H]3C[C@@H](C3(C)C)[C@]2(C)O1 [Example 3538, R-N^1-((2-phenyl-4-methylpyrimidin-5-yl)carbonyl)boroarginine, (+)-pinanediol ester, hydrochloride] | < 500 nM | 500 to 50000 nM | 500 to 50000 nM |  |
| CC1(C)[C@@H]2C[C@H]3OB([C@H](CCCNC(=N)N)NC(=O)c4cccc(-c5ccccc5)c4)O[C@@]3(C)[C@H]1C2 [Example 2] | < 500 nM | < 500 nM | < 500 nM |  |
| Cc1cc(-c2ccccc2S(=O)(=O)NC(C)(C)C)ccc1C(=O)N[C@@H](CCCNC(=N)N)B(O)O [Example 224] | < 500 nM | < 500 nM | < 500 nM |  |
| CC1(C)[C@@H]2C[C@H]3OB([C@H](CCCCN)NC(=O)Cn4nc(Cc5ccccc5)nc4Cc4ccccc4)O[C@@]3(C)[C@H]1C2 [Example 921] | < 500 nM |  | 500 to 50000 nM | 500 to 50000 nM |
| CC(C)(C)NS(=O)(=O)c1ccccc1-c1ccc(C(=O)N[C@@H](CCCNC(=N)N)B2O[C@@H]3C[C@@H]4C[C@@H](C4(C)C)[C@]3(C)O2)cc1 [Example 261] | < 500 nM | < 500 nM | < 500 nM |  |
| CC1(C)[C@@H]2C[C@H]3OB([C@H](CCCCN)NC(=O)Cn4nc(COCc5ccccc5)nc4Cc4ccccc4)O[C@@]3(C)[C@H]1C2 [Example 914] | < 500 nM | 500 to 50000 nM | 500 to 50000 nM |  |
